{
  "source": "patent US10175256B2",
  "about": "“Compositions and methods utilizing lysophosphatidylcholine scaffolds” (National University Of Singapore, priority 2013, dated 2019)",
  "key": {"mouse Mfsd2a [1]": {"biological_target": "T1, mouse Mfsd2a (Mus musculus, UniProt Q9DA75)", "T1 construct": "expressed in transfected cells; host or cells: HEK293", "T1 sequence (Q9DA75 1-534)": "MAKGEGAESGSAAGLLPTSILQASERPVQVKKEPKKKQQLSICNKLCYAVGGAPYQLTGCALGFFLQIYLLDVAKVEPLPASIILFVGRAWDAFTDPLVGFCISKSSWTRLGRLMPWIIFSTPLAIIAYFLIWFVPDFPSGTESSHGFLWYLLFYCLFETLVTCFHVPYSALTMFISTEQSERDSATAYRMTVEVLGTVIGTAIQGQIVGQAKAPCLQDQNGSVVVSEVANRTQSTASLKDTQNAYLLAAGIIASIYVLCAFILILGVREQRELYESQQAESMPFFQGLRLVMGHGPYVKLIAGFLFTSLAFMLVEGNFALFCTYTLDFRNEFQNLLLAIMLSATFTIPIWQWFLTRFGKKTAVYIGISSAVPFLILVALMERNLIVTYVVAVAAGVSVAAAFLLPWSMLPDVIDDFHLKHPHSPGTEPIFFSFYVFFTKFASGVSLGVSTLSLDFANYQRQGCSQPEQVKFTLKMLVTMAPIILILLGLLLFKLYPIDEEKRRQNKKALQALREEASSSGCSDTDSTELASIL", "assay": "Cell-based free fatty acid transport/uptake in Mfsd2a expressing HEK293 cells (mass spectrometry, TLC; Table 1)", "details": "Mfsd2a HEK293 cells, 100 uM fatty acid/BSA overnight", "description": "(§1) FIG. 12. […] Std: free [^14C]-DHA. b. TLC analysis of phospholipids and neutral lipids of HEK293 cells transfected with mouse Mfsd2a and mutants after overnight incubation with 100 μM [^14C]-oleate. TLC protocol used was described in Methods. PC: phosphatidylcholine, PE: phosphatidylethanolamine, TAG: triglyceride, CE: cholesteryl ester.\n(§2) For tissue lipid analysis, brain, liver, and heart of female WT and KO mice with age of 7-8 weeks born to HET mothers, and brains from e18.5 embryos were collected and immediately frozen with liquid nitrogen until extraction. Lipid extraction was followed by chloroform/methanol method. For cell-based free fatty acid transport, lipids from HEK293 cells expressing mouse Mfsd2a and mock controls after overnight treatment with 100 μM docosahexaenoic, arachidonic, eicosapentaenoic, alpha-linolenic, linoleic, oleic, palmitic acids in BSA complex were extracted using HIP buffer (hexane:iso-propanol 3:2, per volume) and dried under N2 gas. Phospholipid species were measured by high performance liquid chromatography (HPLC) 1100 system (Agilent) coupled with an Triple Quadrupole/Ion Trap mass spectrometer (4000Qtrap, Applied Biosystem). Levels of individual phospholipid species were analyzed as described previously and quantified using spiked internal standards that includes PC-14:0/14:0, PE-14:0/14:0, PS-14:0/14:0 (Avanti Polar Lipids, Alabaster, Ala., USA), and dioctanoyl PI (Echelon Biosciences, Inc., Salt Lake City, Utah, USA)."}, "mouse Mfsd2a [2]": {"test_system": "mouse Mfsd2a", "assay": "Cell-based free fatty acid transport/uptake in Mfsd2a expressing HEK293 cells (mass spectrometry, TLC; Table 1)", "details": "mock HEK293 cells, 100 uM fatty acid/BSA overnight", "description": "as §1, §2"}},
  "note": "Values joined by “and” are separate entries in the source; they are usually repeats but may differ in a detail not shown here. Equal entries are not always repeated.",
  "data": [
    {"compound": "CCCCCCCC/C=C\\CCCCCCCC(=O)O", "note": "[Oleic]", "values": [
      {"measurement": "% DHA in PS", "setting": "mouse Mfsd2a [1]", "value": "0.1056% and 0.1088% and 0.1312% and 0.1092%"},
      {"measurement": "PS(sum) in total phospholipid", "setting": "mouse Mfsd2a [1]", "value": "2.787 mol percent and 2.992 mol percent and 3.252 mol percent and 2.587 mol percent"},
      {"measurement": "PS:36:1 in total phospholipid", "setting": "mouse Mfsd2a [1]", "value": "1.289 mol percent and 1.358 mol percent and 1.479 mol percent and 1.19 mol percent"},
      {"measurement": "PS:36:2 in total phospholipid", "setting": "mouse Mfsd2a [1]", "value": "0.4671 mol percent and 0.4839 mol percent and 0.5719 mol percent and 0.4252 mol percent"},
      {"measurement": "PS:36:3 in total phospholipid", "setting": "mouse Mfsd2a [1]", "value": "0.0188 mol percent and 0.02264 mol percent and 0.01888 mol percent and 0.01251 mol percent"},
      {"measurement": "PS:36:4 in total phospholipid", "setting": "mouse Mfsd2a [1]", "value": "0.003419 mol percent and 0.003995 mol percent and 0.004969 mol percent and 0.003335 mol percent"},
      {"measurement": "PS:38:2 in total phospholipid", "setting": "mouse Mfsd2a [1]", "value": "0.2325 mol percent and 0.2459 mol percent and 0.2529 mol percent and 0.1984 mol percent"},
      {"measurement": "PS:38:3 in total phospholipid", "setting": "mouse Mfsd2a [1]", "value": "0.1257 mol percent and 0.1554 mol percent and 0.1491 mol percent and 0.1276 mol percent"},
      {"measurement": "PS:38:4 in total phospholipid", "setting": "mouse Mfsd2a [1]", "value": "0.06539 mol percent and 0.08301 mol percent and 0.08249 mol percent and 0.07253 mol percent"},
      {"measurement": "PS:38:5 in total phospholipid", "setting": "mouse Mfsd2a [1]", "value": "0.008121 mol percent and 0.01199 mol percent and 0.01093 mol percent and 0.01084 mol percent"},
      {"measurement": "PS:40:4 in total phospholipid", "setting": "mouse Mfsd2a [1]", "value": "0.09916 mol percent and 0.08523 mol percent and 0.1014 mol percent and 0.07753 mol percent"},
      {"measurement": "PS:40:5 in total phospholipid", "setting": "mouse Mfsd2a [1]", "value": "0.05001 mol percent and 0.05638 mol percent and 0.05863 mol percent and 0.05419 mol percent"},
      {"measurement": "PS:40:6 in total phospholipid", "setting": "mouse Mfsd2a [1]", "value": "0.09445 mol percent and 0.09677 mol percent and 0.1222 mol percent and 0.0942 mol percent"},
      {"measurement": "PS:40:7 in total phospholipid", "setting": "mouse Mfsd2a [1]", "value": "0.01111 mol percent and 0.01199 mol percent and 0.008944 mol percent and 0.01501 mol percent"},
      {"measurement": "% DHA in PS", "setting": "mouse Mfsd2a [2]", "value": "0.107% and 0.1103% and 0.1249%"},
      {"measurement": "PS(sum) in total phospholipid", "setting": "mouse Mfsd2a [2]", "value": "2.685 mol percent and 3.082 mol percent and 2.902 mol percent"},
      {"measurement": "PS:36:1 in total phospholipid", "setting": "mouse Mfsd2a [2]", "value": "1.21 mol percent and 1.398 mol percent and 1.339 mol percent"},
      {"measurement": "PS:36:2 in total phospholipid", "setting": "mouse Mfsd2a [2]", "value": "0.4461 mol percent and 0.5356 mol percent and 0.4546 mol percent"},
      {"measurement": "PS:36:3 in total phospholipid", "setting": "mouse Mfsd2a [2]", "value": "0.0148 mol percent and 0.01325 mol percent and 0.01917 mol percent"},
      {"measurement": "PS:38:2 in total phospholipid", "setting": "mouse Mfsd2a [2]", "value": "0.2083 mol percent and 0.235 mol percent and 0.2311 mol percent"},
      {"measurement": "PS:38:3 in total phospholipid", "setting": "mouse Mfsd2a [2]", "value": "0.1326 mol percent and 0.1657 mol percent and 0.1369 mol percent"},
      {"measurement": "PS:38:4 in total phospholipid", "setting": "mouse Mfsd2a [2]", "value": "0.07625 mol percent and 0.06869 mol percent and 0.07723 mol percent"},
      {"measurement": "PS:38:5 in total phospholipid", "setting": "mouse Mfsd2a [2]", "value": "0.01081 mol percent and 0.01386 mol percent and 0.0115 mol percent"},
      {"measurement": "PS:40:4 in total phospholipid", "setting": "mouse Mfsd2a [2]", "value": "0.09048 mol percent and 0.1018 mol percent and 0.09531 mol percent"},
      {"measurement": "PS:40:5 in total phospholipid", "setting": "mouse Mfsd2a [2]", "value": "0.06829 mol percent and 0.04459 mol percent and 0.0619 mol percent"},
      {"measurement": "PS:40:6 in total phospholipid", "setting": "mouse Mfsd2a [2]", "value": "0.09845 mol percent and 0.1006 mol percent and 0.1134 mol percent"},
      {"measurement": "PS:40:7 in total phospholipid", "setting": "mouse Mfsd2a [2]", "value": "0.008536 mol percent and 0.00964 mol percent and 0.0115 mol percent"}
    ]}
  ]
}
